Reference: patent US20240285670A1, “THERAPEUTIC TREATMENT OF TUMORS BY BLOCKING THE HEME SYNTHESIS-EXPORT AXIS” (Università degli Studi di Torino, priority 2021, published 2024)

Columns and labels:
BTECs = test: In vitro tubulogenesis assay on matrigel; type: cell-based, human; settings: FLVCR1a-silenced vs scramble shRNA BTECs, 18 hours
Text: (A) BTECs counting, as a readout of cell proliferation, at the indicated time points. […] Data represent mean±SEM, n=4. For statistical analyses, a two-way analysis of variance was used, followed by the Bonferroni correction for multiple group comparisons; ***p<0.001. (B) Quantification of BTECs migration rate in wound-healing assay. […] Data represent mean±SEM, n=32. For statistical analyses, a nonparametric unpaired Mann-Whitney test was used; ***p<0.001. (C) In vitro tubulogenesis assay on matrigel. […] The number of nodes counted within the neo-formed vascular networks is shown. Data represent mean±SEM; n=10. For statistical analyses, a nonparametric unpaired Mann-Whitney test was used; **p<0.01.
To assess in vitro formation of capillary-like structures, 3.5*10^4 BTECs were seeded in 24-well plates coated with BD Matrigel Matrix Growth Factor Reduced (BD Biosciences, Franklin Lakes, NJ USA, catalog n°356230). Cell organization on Matrigel was monitored using a Nikon Eclipse T-E microscope with a Nikon Plan 10×/0.10 NA objective. […] Images obtained 18 hours after the start of the experiment were analysed using Fiji open source software (Schindelin et al., 2012) (http://fiji.sc/ RRID:SCR_002285) in order to assess the number of nodes (intersections formed by at least three detectable cells) for each field. […]

SKCO1 cells = test: SKCO1 xenograft tumor model in NSG mice; type: in vivo
Text: (A) Proliferation of Caco2 cells assessed by crystal violet staining at the indicated days; bar=1000 μm. […] Staining quantification is reported in the bar graph as percentage of crystal violet stained area. Data represent mean±SEM, n=4. For statistical analyses, a two-way analysis of variance was used, followed by the Bonferroni correction for multiple group comparisons; *=p<0.05, ***=p<0.001. (B) Caco2 cells viability the day of plating (day 0) and three days after plaiting (day 3). The measure is considered a readout of cell proliferation. […] Data represent mean±SEM, n=3 wells. For statistical analyses, a two-way analysis of variance was used, followed by the Bonferroni correction for multiple group comparisons; *=p<0.05, **=p<0.01. (C, D, E) Representative flow cytometric analyses of apoptosis in synchronized Caco2 (C), SKCO1 (D) and C80 (E) cells. […] Data represent mean±SEM, n=4 wells pooled from two independent experiments. […]
For the SKCO1 xenograft model, 8-week-old NOD SCID gamma (NSG) male mice (The Jackson Laboratory, Bar Harbor, ME USA; NOD.Cg-Prkdc^scid Il2rg^tm1Wjl/SzJ, catalog n° 005557, RRID: IMSR_JAX:005557) were housed in a temperature-controlled, pathogen-free environment and used for experimentation. […] Tumor length (L) and width (W) were measured and tumor volume (mm^3) was calculated using the following formula: (L×W^2)/2. […]

## FLVCR1a shRNA: shRNA specifically down-regulating FLVCR1a without targeting FLVCR1b; pLKO.1 lentiviral clone TRCN0000059599, antisense SEQ ID No.: 2 (antisense TTGCTAATGATGCTGTACTGG; sense CCAGTACAGCATCATTAGCAA)
BTECs
  formation of microvascular network on matrigel (number of nodes): impaired ability to form a complex microvascular network on matrigel
SKCO1 cells; subcutaneous injection of FLVCR1a-silenced vs scramble SKCO1 cells in NSG mice, 11 weeks
  tumor size (tumor volume): smaller tumors
SKCO1 cells; tumors from FLVCR1a-silenced vs control SKCO1 cells in NSG mice
  tumor histology (hematoxylin and eosin): higher amount of stroma (mostly fibrous tissue) and, in general, lower cellularity
